Patent US9409880B2, “Modulators of TLR3/dsRNA complex and uses thereof” (The Regents of the University of Colorado, a body corporate, priority 2011, dated 2016)
“Also recorded” adds a separate entry of the source.

How the values were obtained:
RANTES = assay: In vivo poly IC-induced RANTES production; set-up: species or system mice
TLR7 = molecular target: T1, TLR7 (Mus musculus, UniProt P58681); assay: RAW264.7 cell nitric oxide TLR selectivity assay (R848); format: cell-based; settings: 27 μM
T1 construct: endogenous in cells; host or cells: RAW 264.7
T1 sequence (P58681 27-1050): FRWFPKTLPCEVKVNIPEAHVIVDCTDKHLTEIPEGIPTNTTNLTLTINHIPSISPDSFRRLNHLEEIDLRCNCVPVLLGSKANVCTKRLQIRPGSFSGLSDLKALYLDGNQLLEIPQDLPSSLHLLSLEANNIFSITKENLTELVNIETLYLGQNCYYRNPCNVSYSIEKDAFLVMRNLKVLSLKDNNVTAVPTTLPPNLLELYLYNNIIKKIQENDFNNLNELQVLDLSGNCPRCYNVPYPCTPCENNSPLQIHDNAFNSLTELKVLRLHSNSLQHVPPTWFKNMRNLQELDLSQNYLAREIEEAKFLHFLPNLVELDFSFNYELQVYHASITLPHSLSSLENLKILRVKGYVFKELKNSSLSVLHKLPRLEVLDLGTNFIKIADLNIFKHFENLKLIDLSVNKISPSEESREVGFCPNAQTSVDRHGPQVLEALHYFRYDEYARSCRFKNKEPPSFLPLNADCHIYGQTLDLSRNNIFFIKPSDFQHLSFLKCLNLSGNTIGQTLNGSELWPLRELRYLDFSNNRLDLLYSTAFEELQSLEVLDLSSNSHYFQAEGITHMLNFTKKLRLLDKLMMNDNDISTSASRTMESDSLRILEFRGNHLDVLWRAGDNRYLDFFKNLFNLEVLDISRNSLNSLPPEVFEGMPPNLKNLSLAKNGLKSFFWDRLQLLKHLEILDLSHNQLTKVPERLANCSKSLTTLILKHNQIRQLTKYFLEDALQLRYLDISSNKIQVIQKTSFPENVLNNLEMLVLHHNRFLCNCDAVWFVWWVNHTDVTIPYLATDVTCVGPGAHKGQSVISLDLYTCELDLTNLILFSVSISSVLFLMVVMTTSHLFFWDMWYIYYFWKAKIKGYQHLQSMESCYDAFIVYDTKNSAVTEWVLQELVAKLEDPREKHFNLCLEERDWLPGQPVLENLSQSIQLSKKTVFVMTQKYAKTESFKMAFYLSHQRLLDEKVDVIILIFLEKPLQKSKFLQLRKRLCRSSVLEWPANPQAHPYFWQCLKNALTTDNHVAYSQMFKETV

TLR2/1 = molecular target: T2, TLR2/1 (Mus musculus, UniProt Q9EPQ1+Q9QUN7); assay: RAW264.7 cell nitric oxide TLR selectivity assay (Pam3CSK4); format: cell-based; settings: 27 μM
T2 construct: endogenous in cells; host or cells: RAW 264.7
T2 sequence (Q9QUN7 25-784): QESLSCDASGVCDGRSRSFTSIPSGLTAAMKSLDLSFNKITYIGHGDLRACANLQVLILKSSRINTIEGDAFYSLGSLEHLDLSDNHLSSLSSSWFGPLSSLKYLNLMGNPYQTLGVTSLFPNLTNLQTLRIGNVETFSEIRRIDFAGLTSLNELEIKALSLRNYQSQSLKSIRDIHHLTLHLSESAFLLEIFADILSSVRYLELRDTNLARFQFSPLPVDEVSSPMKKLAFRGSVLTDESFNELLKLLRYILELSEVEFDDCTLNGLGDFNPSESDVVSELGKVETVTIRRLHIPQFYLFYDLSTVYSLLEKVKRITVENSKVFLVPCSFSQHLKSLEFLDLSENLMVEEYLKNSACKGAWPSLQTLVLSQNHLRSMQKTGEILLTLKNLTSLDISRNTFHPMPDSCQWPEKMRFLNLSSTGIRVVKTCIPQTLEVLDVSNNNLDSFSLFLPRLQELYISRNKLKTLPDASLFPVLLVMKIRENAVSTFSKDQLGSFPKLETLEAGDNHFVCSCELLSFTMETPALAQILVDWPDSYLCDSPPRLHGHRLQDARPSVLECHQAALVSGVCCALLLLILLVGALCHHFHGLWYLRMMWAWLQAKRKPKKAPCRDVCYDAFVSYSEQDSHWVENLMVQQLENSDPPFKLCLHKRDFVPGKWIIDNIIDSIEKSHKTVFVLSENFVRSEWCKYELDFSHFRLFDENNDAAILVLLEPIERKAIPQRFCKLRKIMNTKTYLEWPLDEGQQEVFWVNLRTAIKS
T2 sequence (Q9EPQ1 25-795 limits assumed): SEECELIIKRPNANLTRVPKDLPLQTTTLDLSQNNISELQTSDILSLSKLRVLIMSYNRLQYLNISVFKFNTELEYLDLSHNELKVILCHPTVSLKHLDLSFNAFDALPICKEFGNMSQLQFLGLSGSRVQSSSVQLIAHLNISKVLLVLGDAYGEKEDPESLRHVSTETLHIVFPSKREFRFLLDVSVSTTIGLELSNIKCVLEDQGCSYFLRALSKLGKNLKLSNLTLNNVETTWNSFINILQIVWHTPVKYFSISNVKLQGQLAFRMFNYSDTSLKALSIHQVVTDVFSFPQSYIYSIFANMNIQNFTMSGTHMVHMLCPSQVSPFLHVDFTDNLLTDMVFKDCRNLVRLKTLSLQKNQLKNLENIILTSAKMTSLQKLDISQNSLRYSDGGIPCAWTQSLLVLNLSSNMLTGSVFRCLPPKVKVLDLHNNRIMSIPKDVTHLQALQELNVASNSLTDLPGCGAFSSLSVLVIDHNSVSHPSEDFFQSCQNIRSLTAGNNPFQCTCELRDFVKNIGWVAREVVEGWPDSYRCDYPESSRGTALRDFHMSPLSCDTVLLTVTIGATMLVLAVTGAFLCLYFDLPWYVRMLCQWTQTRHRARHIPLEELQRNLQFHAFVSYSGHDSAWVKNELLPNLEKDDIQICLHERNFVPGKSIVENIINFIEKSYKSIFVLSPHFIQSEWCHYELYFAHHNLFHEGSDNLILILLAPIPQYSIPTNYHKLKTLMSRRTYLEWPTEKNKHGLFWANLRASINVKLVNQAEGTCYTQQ

Cyp1A2 = molecular target: T3, Cyp1A2 (Homo sapiens, UniProt P05177); assay: Cytochrome P450 toxicity assay; format: in vitro ADME; settings: 25 μM and 50 μM; compared to known inhibitor aNF
T3 construct: tissue Apredica (testing lab); host or cells: microsomes (subcellular fractions)
T3 sequence (P05177 1-516): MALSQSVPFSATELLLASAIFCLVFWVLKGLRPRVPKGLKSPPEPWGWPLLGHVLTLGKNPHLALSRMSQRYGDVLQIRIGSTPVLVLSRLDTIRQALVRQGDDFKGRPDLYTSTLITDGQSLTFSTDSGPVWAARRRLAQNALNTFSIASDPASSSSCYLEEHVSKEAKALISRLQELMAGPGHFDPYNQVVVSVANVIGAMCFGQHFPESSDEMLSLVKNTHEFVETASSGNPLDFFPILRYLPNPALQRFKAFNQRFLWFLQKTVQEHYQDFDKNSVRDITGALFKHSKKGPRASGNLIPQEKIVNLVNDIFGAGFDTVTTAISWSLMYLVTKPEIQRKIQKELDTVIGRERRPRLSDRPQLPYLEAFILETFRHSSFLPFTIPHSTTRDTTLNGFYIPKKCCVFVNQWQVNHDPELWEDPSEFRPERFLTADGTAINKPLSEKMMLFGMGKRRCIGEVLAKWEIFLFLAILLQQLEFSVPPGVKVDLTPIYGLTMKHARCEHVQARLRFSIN
Procedure: (§1) Test agent was incubated (two wells per condition) with microsomes at 37° C. Control incubations containing vehicle or reference inhibitors were run along side the test agents. The final assay contained test agent, probe substrates at the indicated concentration, 2 mM NADPH, 3 mM MgCl2 in 50 mM potassium phosphate buffer, pH 7.4. The final microsomal concentration was 0.5 mg/mL. The maximum solvent concentration in the final assay was ≦0.5% to minimize the inhibition of Cyps by solvent. NADPH was added last to start the assay. At the end of ten minutes incubation, the assay was stopped by the addition of acetonitrile containing internal standard, the samples were centrifuged, and the amount of probe metabolite in the supernatant was determined by LC/MS/MS. (Testing was done by Apredica, Watertown, Mass. using subcellular fractions)

Cyp2C19 = molecular target: T4, Cyp2C19 (Homo sapiens, UniProt P33261); assay: Cytochrome P450 toxicity assay; format: in vitro ADME; settings: 25 μM and 50 μM; compared to known inhibitor ticlopidine
T4 construct: tissue Apredica (testing lab); host or cells: microsomes (subcellular fractions)
T4 sequence (P33261 whole entry): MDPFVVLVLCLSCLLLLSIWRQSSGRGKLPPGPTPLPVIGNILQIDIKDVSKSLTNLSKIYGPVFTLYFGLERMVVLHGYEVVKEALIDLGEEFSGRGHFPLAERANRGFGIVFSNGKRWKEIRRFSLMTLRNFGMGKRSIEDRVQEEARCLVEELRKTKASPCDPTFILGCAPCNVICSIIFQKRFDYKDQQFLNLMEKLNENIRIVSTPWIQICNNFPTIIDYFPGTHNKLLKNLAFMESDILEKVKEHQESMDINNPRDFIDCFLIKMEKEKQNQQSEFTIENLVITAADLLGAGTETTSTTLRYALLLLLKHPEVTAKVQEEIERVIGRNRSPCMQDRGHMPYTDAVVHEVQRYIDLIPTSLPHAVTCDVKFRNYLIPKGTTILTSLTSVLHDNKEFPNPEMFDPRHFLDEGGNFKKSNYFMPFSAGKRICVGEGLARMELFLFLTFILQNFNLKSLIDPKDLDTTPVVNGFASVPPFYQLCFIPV
Procedure: as §1

Cyp3A4 = molecular target: T5, Cyp3A4 (Homo sapiens, UniProt P08684); assay: Cytochrome P450 toxicity assay; format: in vitro ADME; settings: 25 μM and 50 μM; compared to known inhibitor ketoconazole
T5 construct: tissue Apredica (testing lab); host or cells: microsomes (subcellular fractions)
T5 sequence (P08684 whole entry): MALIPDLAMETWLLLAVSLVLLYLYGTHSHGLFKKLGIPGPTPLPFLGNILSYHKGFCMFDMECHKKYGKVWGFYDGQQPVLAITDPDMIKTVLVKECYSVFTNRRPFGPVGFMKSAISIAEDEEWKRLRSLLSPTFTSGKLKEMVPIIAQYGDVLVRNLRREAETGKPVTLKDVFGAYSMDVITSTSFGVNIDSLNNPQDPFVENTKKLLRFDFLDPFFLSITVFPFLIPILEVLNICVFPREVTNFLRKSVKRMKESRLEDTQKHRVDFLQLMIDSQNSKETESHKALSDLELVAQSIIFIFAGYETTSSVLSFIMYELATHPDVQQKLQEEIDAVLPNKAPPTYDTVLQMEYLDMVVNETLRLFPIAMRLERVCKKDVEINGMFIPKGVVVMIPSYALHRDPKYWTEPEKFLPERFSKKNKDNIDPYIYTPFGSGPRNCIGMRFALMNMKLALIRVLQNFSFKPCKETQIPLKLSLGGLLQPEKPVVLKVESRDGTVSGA
Procedure: as §1

Cyp2D6 = molecular target: T6, Cyp2D6 (Homo sapiens, UniProt P10635); assay: Cytochrome P450 toxicity assay; format: in vitro ADME; settings: 25 μM and 50 μM; compared to known inhibitor quinidine
T6 construct: tissue Apredica (testing lab); host or cells: microsomes (subcellular fractions)
T6 sequence (P10635 whole entry): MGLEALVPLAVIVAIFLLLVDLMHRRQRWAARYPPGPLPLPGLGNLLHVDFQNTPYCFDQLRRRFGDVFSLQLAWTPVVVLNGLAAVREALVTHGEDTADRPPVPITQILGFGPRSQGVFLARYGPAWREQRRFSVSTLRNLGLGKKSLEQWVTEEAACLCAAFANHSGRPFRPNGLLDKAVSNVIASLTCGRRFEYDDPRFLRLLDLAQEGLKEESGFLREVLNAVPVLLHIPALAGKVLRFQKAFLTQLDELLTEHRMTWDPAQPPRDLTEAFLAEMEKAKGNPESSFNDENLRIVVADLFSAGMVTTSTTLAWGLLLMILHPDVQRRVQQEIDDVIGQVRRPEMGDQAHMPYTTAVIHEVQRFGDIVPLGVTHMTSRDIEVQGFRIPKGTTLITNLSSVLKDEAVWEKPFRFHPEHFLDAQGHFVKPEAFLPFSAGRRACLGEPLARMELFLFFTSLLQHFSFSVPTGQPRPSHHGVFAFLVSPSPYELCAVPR
Procedure: as §1

[1] = test system: XMRV-induced IP-10/CXCL10 production; assay: XMRV-induced IP-10 mRNA (RT-PCR) in LNCaP cells; format: cell-based, human
representative kinases = assay: Kinase profiling; format: biochemical; settings: 10 μM

## O=C(N[C@H](Cc1ccccc1)C(=O)O)c1sc2cc(F)ccc2c1Cl [Compound 4a, (R)-2-(3-chloro-6-fluorobenzo[b]thiophene-2-carboxamido)-3-phenylpropanoic acid]
RANTES; pretreatment before poly IC i.v.
  RANTES production with increased pre-treatment doses: decrease of RANTES in a dose-dependent manner; also recorded: decreasing RANTES production
RANTES; pretreatment with 27 μg
  RANTES production with increasing poly IC doses: significant decrease in RANTES production; also recorded: decreased RANTES production
TLR7
  effect on TLR7 signaling: without significantly affecting other TLRs
TLR2/1
  effect on TLR2/1 signaling: without significantly affecting other TLRs
Cyp1A2
  toxicity to Cyp1A2: low toxicity
Cyp2C19
  toxicity to Cyp2C19: low toxicity
Cyp3A4
  toxicity to Cyp3A4: low toxicity
Cyp2D6
  toxicity to Cyp2D6: low toxicity
[1]; 50 μM, RT-PCR of IP-10 mRNA
  XMRV-induced IP-10 production: inhibits XMRV-induced IP-10 production
[1]; 10 and 25 μM, RT-PCR
  XMRV-induced IP-10/CXCL10 production: inhibition of XMRV-induced IP-10/CXCL10 production
Representative kinases
  effect on kinase activities: did not significantly affect activities
